Source: patent US10350262B2, “MCJ agonists and uses therefor” (priority 2015, dated 2019)
“Also recorded” adds a separate entry of the source. No end group written: not given here.

How the values were obtained:
MCF7/ADR cells = assay: Viable cell count of MCF7/ADR cells (Trypan blue); format: cell-based, human; conditions: doxorubicin 3 μM, 2 days
Experimental: (§1) FIG. 15A provides results of Western blot analysis for MCJ in MCF7 cells and MCF7/ADR (ADR) cells. Actin was used as loading control. […] Viable cells were counted 2 days later.
(§2) FIG. 16A-B provides graphs showing response to MCJ agonists. […] Cells were harvested 2 days later and viable cells were counted. […] Mice were harvested at day 4. The size of a tumor over time was determined by caliper measurements, and is represented as a percentage relative to the initial size prior to the treatment. p<0.05 as determined by a paired t-test.
(§3) Cell Culture. MCF7 and MCF7/ADR cells were a kind gift from Dr. Ken Cowan (National Cancer Institute, Bethesda, Md.). MCF7/siMCJ cells were generated by stable transfection with a plasmid expressing a shRNA for MCJ (siMCJ) as described in Hatle, K. M., et al., Mol Cell Biol 27, 2952-2966 (2007). All cells were maintained at 37 C, 5% CO2 in RPMI-1640 (Life technologies, Inc., Gaithersburg, Md.) containing 5% FBS.
(§4) Cell count. Cells were trypsinized, washed, and resuspended in medium. Number of viable cells was measured by counting using Trypan blue dye to exclude dead cells (visualized as blue).
(§5) Doxorubicin and peptides treatment in vitro. Doxorubicin (Sigma-Aldrich) was used at 3 μM final concentration. The three different peptides described in the examples (SEQ ID NO: 2, 18 or 6) were resuspended at 10 mM stock concentration in PBS. The peptides were used a different concentration as indicated for each example (1, 10, or 50 μM). Cells were plated the day prior the treatment (18-20 h prior to the treatment). For treatments with peptides only, peptides were added to the plates at the indicated concentrations, and after 2 or 3 days (as indicated for each example) cells were trypsinized, resuspended, and counted. For the treatment with doxorubicin and peptides, cells were pretreated with the corresponding peptide for 4 h prior to adding doxorubicin.
MCF7/ADR cells were incubated (using standard procedures) for three days in media alone or in media plus three different MCJ based polypeptides each at a concentration of 50 μM in media. The cells of set one were incubated in media and served as a control set. The cells of set two were incubated in media that included a 50 μM concentration of a MCJ polypeptide without a targeting agent polypeptide. The amino acid sequence of the N-MCJ polypeptide without a targeting agent polypeptide was […] (SEQ ID NO:2). The cells of set three were incubated in media that included a 50 μM concentration of a TAT-N-MCJ polypeptide. The amino acid sequence of the TAT-N-MCJ polypeptide was: […] (SEQ ID NO:18). […]

[1] = tested on: mammary tumors in MCJ KO MMTV mice; assay: Doxorubicin and peptide treatment in vivo, mammary tumor size in MCJ KO MMTV mice; design: species or system mouse
Experimental: as §2
(§6) Mice. […] MCJ KO mice were crossed with the previously described MMTV-PyMT mice [see: Guy, C. T., et. al., Mol Cell Biol 12, 954-961 (1992)] to generate MCJ KO MMTV mice. Wildtype MMTV mice and MCJ KO MMTV mice were used for the experiments. All mice were housed under sterile conditions at the animal care facility at the University of Vermont. The procedures were approved by the University of Vermont Institutional Animal Care and Use Committee.
Doxorubicin and peptides treatment in vivo. MTV mice and MCJ KO MMTV mice were used to assay response to doxorubicin and MCJ peptides. The treatments were initiated around 2.5-3 months of age when the mammary tumor these mice develop reach 300 mm^3. […] Perpendicular tumor diameters were measured using a vernier scale caliper and tumor volume estimated using the formula for ellipsoid (width×high×length)/2. […]
The size of a tumor over time was determined by caliper measurements, and is represented as a percentage relative to the initial size prior to the treatment. p<0.05 as determined by a paired t-test. […]

[2] = tested on: mammary tumors in MMTV mice; assay: Doxorubicin treatment in vivo, mammary tumor size in MMTV mice; design: species or system mouse; conditions: doxorubicin 2 mg/Kg i.p. every other day for two weeks, n=4
Excerpt: as §6
Doxorubicin and peptides treatment in vivo. MTV mice and MCJ KO MMTV mice were used to assay response to doxorubicin and MCJ peptides. The treatments were initiated around 2.5-3 months of age when the mammary tumor these mice develop reach 300 mm^3. Doxorubicin was administered intreperitoneal in PBS (100 μl per mouse) at a dose of 2 mg/Kg. TAT-N-MCJ-mts peptide (SEQ ID NO: 6) was administered at the time of doxorubicin by a subcutaneous injection in PBS (100 μl per mouse) at a dose of 10 mg/Kg. Administrations of doxorubicin and peptide were performed every other day for the indicated period of time. Perpendicular tumor diameters were measured using a vernier scale caliper and tumor volume estimated using the formula for ellipsoid (width×high×length)/2. […]
The size of a tumor over time was determined by caliper measurements, and is represented as a percentage relative to the initial size prior to the treatment. p<0.05 as determined by a paired t-test.

MCF7 cells = assay: Viable cell count of MCF7 cells (Trypan blue); format: cell-based, human; conditions: doxorubicin 3 μM
Excerpt: as §1, §3, §4, §5
MCF7 cells and MCF7/ADR cells were incubated (using standard procedures) for two days in media alone or in media that included different concentrations of the TAT-N-MCS-MTS polypeptide having the amino acid sequence set forth as: […]

[3] = mouse
Experimental: MCF7/ADR cells were treated with doxorubicin, TAT-N-MCJ-mts peptide alone or in combination. […] Thus, at lower doses, MCJ agonists could overcome chemo-resistance of breast cancer cells in vitro. A study was also performed that tested the effect of the TAT-N-MCJ-mts peptide in combination with chemotherapy in vivo using the MMTV mammary tumor mouse model. […] Therefore MCJ KO MMTV mice were treated with doxorubicin alone or doxorubicin and the TAT-N-MCJ-mts peptide and followed tumor size.

Compound | expansion of cells (viable cells) (MCF7/ADR cells) | tumor size over time ([1]; doxorubicin 2 mg/Kg i.p. every other day for two weeks, n=4) | tumor size (percentage relative to initial size) ([1]; doxorubicin alone 2 mg/Kg i.p. at day 0, 2 and 3, harvested day 4, n=3) | tumor size over time [2] | effect on viable cells (MCF7 cells; 2 days) | cell death (MCF7 cells; vs media alone) | toxicity in vivo (abnormality in treated mice) [3]
COc1cccc2c1C(=O)c1c(O)c3c(c(O)c1C2=O)C[C@@](O)(C(=O)CO)C[C@@H]3O[C@H]1C[C@H](N)[C@H](O)[C@H](C)O1 [doxorubicin] | no effect on the expansion of MCF7/ADR cells | continued growing or did not shrink; also recorded: less reduction in tumor size; also recorded: did not decrease, and continued to increase over time | continued growing | The size of the tumors in MMTV-Py mice was reduced; also recorded: tumor size in MMTV mice decreased over time | sensitive to doxorubicin | significant level of cell death | –
YGKKRRQRRGMAARGVIAPVGESLRYAEYLGTRTWVPKGLKSP [TAT-N-MCJ-MTS] | – | – | – | – | – | – | no obvious abnormality was observed
